Results as given in US9492465B2, “Gold(I) complexes with t-butyl phosphine and dialkyl dithiocarbamate ligands” (KING FAHD UNIVERSITY OF PETROLEUM AND MINERALS, priority 2014, dated 2016).
pIC50: −log10 of the molar value.

Experiments:
Type in all cases: cell-based
[1] = test system: MCF7 (human breast cancer) cell line; experiment: in vitro cytotoxicity, MTT assay, MCF7 cell line; conditions: 24 h exposure, read-out: IC50 Values against MCF7
Method: Metal precursor and two synthesized compound (1)and compound (2) were evaluated for their in-vitro cytotoxic activity against MCF7 (human breast cancer), HeLa (human cervical cancer) and A549 (human lung carcinoma) cell lines.
(§1) The cells were seeded at 4×10^3 cells/well in 100 μL DMEM (Dulbecco's Modified Eagle's Medium) containing 10%. FBS (Fetal Bovine Serum) in 96-wells tissue culture plate and incubated for 72 h at 37° C., 5% CO2 in air and 90% relative humidity in CO2 incubator. After incubation, 100 μL of complex (0),(1)and (2) (50, 25, 12.5, 6.25 and 3.12 μg/mL), prepared in DMEM, was added to cells and the cultures were incubated for 24 h. The medium of wells was discarded and 100 μL DMEM containing MTT (3-(4,5-Dimethylthiazol-2-Yl)-2,5-Diphenyltetrazolium Bromide) (5 mg/mL) was added to the wells and incubated in CO2 incubator at 37° C. in dark for 4 h. After incubation, a purple colored formazan (artificial chromogenic dye, product of the reduction of water insoluble tetrazolium salts e.g., MMT by dehydrogenases and reductases) in the cells is produced and appeared as dark crystals in the bottom of the wells. The medium of culture was discarded from each well carefully to avoid disruption of monolayer and 100 μL of Dimethylsufoxide (DMSO) was added in each well. The solution was thoroughly mixed in the wells to dissolve the formazan crystals which ultimately result into a purple solution. The absorbance of the 96-wells plate was taken at 570 nm with Labsystems Multiskan EX-Enzyme-linked immunosorbent assay (EX-ELISA) reader against a reagent blank.
The in vitro cytotoxicity tests were evaluated for the gold(I) precursor, labeled as (0) and two synthesized complexes labeled as (1) and (2)against three human cancer cell lines, MCF7, HeLa and A549 using MTT assay. The dose dependent cytotoxic effect was obtained by the stipulated increase in concentrations of complexes (0), (1) and (2) against the fixed number of human cancer cells. […] FIG. 3 is a graph of the in vitro cytotoxic effect of series of concentrations of compound (0) on MCF7 cell line. […]

[2] = test system: HeLa (human cervical cancer) cell line; experiment: in vitro cytotoxicity, MTT assay, HeLa cell line; conditions: for pIC50: HeLa cell line, 24 h exposure, read-out: IC50 Values against HeLa; for pIC50 / percent viability of HeLa: MTT; for percent viability of HeLa: 24 h; for cytotoxic effects on HeLa cell line compared with Auranofin: 50 μg/mL concentration
Method: as §1, with “After incubation, 100 μL of complex (0),(1)and (2) (50, 25, 12.5, 6.25 and 3.12 μg/mL), prepared in DMEM, was added to cells and the cultures were incubated for 24 h.” left out
(§2) The in vitro cytotoxicity tests were evaluated for the gold(I) precursor, labeled as (0) and two synthesized complexes labeled as (1) and (2)against three human cancer cell lines, MCF7, HeLa and A549 using MTT assay.

[3] = test system: A549 (human lung carcinoma) cell line; experiment: in vitro cytotoxicity, MTT assay, A549 cell line; conditions: 24 h exposure, read-out: IC50 Values against A549
Method: as §1, with “After incubation, 100 μL of complex (0),(1)and (2) (50, 25, 12.5, 6.25 and 3.12 μg/mL), prepared in DMEM, was added to cells and the cultures were incubated for 24 h.” left out
as §2

[4] = concentration 3.12 (title μM, head iM)
[5] = concentration 6.25 (title μM, head iM)
[6] = concentration 12.5 (title μM, head iM)
[7] = concentration 25 (title μM, head iM)
[8] = concentration 50 (title μM, head iM)

Row | Compound | pIC50 [1] | pIC50 [2] | percent viability of HeLa [2, 4] [%] | percent viability of HeLa [2, 5] [%] | percent viability of HeLa [2, 6] [%] | percent viability of HeLa [2, 7] [%] | percent viability of HeLa [2, 8] [%] | pIC50 [3] | cytotoxic effects on HeLa cell line compared with Auranofin [2]
1 | CC(C)(C)P(C(C)(C)C)C(C)(C)C.[Cl][Au] [Complex (0), [Au{P(t-Bu)3}(Cl)], reference compound] | 4.78 | 4.80 | 93.6 ± 2.4 | 89.5 ± 2.3 | 81.9 ± 1.9 | 27.3 ± 1.5 | 12.4 ± 1.1 | 4.85 | –
2 | CN(C)C(=S)[S][Au][PH](C(C)(C)C)(C(C)(C)C)C(C)(C)C [Complex (1), [Au{P(t-Bu)3}(S2CN(CH3)2)]] | 4.68 | 5.68 | 50.6 ± 1.5 | 34.4 ± 0.9 | 19.5 ± 1.4 | 15.3 ± 1.1 | 8.7 ± 1.2 | 4.57 | better than Auranofin
3 | CCN(CC)C(=S)[S][Au][PH](C(C)(C)C)(C(C)(C)C)C(C)(C)C [Complex (2), [Au{P(t-Bu)3}(S2CN(C2H5)2)]] | 4.79 | 5.49 | 53.9 ± 1.9 | 38.6 ± 1.2 | 27.9 ± 1.0 | 22.9 ± 1.2 | 9.41 ± 1.16 | 4.71 | better than Auranofin
